The values below are quoted from earlier work in patent US10227406B2, “Cannabinoid receptor-1 (CB1) monoclonal antibodies” (AMGEN INC., priority 2013, dated 2019).

SMILES strings stand for the structures.

For data set [1] the following is noted: cited from earlier work; for food intake, body weight gain and metabolic parameters: mice; for brain penetration: mouse, in vivo.
For data set [2] the following is noted: in vivo; cited from earlier work.
The conditions of data set [3]: multiple clinical trials; cited from earlier work.

Take `CC(C)[C@H](N=C(NS(=O)(=O)c1ccc(Cl)cc1)N1C[C@H](c2ccccc2)C(c2ccc(Cl)cc2)=N1)C(N)=O` [JD5037]: in data set [1], the “food intake, body weight gain and metabolic parameters” value is “reduce food intake and body weight gain and improve multiple metabolic parameters”; the brain penetration entry is reported as “poor brain penetration”. As for `C[C@H](NC(=O)C(C)(C)Oc1ccc(C(F)(F)F)cn1)[C@@H](Cc1ccc(Cl)cc1)c1cccc(C#N)c1` [taranabant], the “body weight and metabolic parameters” value in data set [2] was “reduce body weight and improve metabolic parameters”. Take `Cc1c(C(=O)NN2CCCCC2)nn(-c2ccc(Cl)cc2Cl)c1-c1ccc(Cl)cc1` [rimonabant]: in data set [2], the “body weight and metabolic parameters” value is “reduce body weight and improve metabolic parameters”. For the same compound, the “adverse CNS effects” value in data set [3] is “increased the incidence of anxiety, depression, and suicidal ideation”. Consider `Cc1c(C(=O)NN2CCS(=O)(=O)CC2)nn(-c2ccc(Cl)cc2Cl)c1-c1ccc(C#CCCC#N)cc1` [AM6545], for which, in data set [1], the “food intake, body weight gain and metabolic parameters” value was “reduce food intake and body weight gain and improve multiple metabolic parameters”; the brain penetration result is on record as “poor brain penetration”.
